In US10526316B2, “Quinoxaline and pyridopyrazine derivatives as PI3Kβ inhibitors” (Janssen Pharmaceutica NV, priority 2015, dated 2020):
Read-outs that look alike come from different tables or passages of the source.

What was measured:
kinase enzymes [1] = biological target: T1, kinase enzymes (Homo sapiens, UniProt P48736); test: Enzyme binding assay (KINOMEscan, DiscoveRx), further kinases of Table A; settings: PIK3Cγ_h
T1 construct: purchased DiscoveRx Corporation, San Diego (contract service, KINOMEscan)
Procedure, shortened: (§1)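 Uses KINOMEscan technology to determine binding affinity toward the kinase enzymes.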

kinase enzymes [2] = biological target: T2, kinase enzymes (Homo sapiens, UniProt P42345); test: as above; settings: MTOR_h
T2 construct: purchased DiscoveRx Corporation, San Diego (contract service, KINOMEscan)
Procedure, shortened: as §1

kinase enzymes [3] = biological target: T3, kinase enzymes (Homo sapiens, UniProt P42336); test: as above; settings: PIK3Cα_h
T3 construct: purchased DiscoveRx Corporation, San Diego (contract service, KINOMEscan)
Procedure, shortened: as §1

PI3Kβ = biological target: T4, PI3Kβ (Homo sapiens, UniProt P42338); test: Enzyme binding assay (KINOMEscan, DiscoveRx); settings: PIK3Cβ_h, read-out: Kd PIK3Cβ_h
T4 construct: purchased DiscoveRx Corporation, San Diego (contract service, KINOMEscan)
Procedure, shortened: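 Using the KINOMEscan format, the enzyme binding affinity of each compound was determined. Each value is the inhibitor binding constant, Kd (nM).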

PI3Kδ = biological target: T5, PI3Kδ (Homo sapiens, UniProt O00329); test: Enzyme binding assay (KINOMEscan, DiscoveRx); settings: PIK3Cδ_h
T5 construct: purchased DiscoveRx Corporation, San Diego (contract service, KINOMEscan)
T5 sequence (O00329 1-1044): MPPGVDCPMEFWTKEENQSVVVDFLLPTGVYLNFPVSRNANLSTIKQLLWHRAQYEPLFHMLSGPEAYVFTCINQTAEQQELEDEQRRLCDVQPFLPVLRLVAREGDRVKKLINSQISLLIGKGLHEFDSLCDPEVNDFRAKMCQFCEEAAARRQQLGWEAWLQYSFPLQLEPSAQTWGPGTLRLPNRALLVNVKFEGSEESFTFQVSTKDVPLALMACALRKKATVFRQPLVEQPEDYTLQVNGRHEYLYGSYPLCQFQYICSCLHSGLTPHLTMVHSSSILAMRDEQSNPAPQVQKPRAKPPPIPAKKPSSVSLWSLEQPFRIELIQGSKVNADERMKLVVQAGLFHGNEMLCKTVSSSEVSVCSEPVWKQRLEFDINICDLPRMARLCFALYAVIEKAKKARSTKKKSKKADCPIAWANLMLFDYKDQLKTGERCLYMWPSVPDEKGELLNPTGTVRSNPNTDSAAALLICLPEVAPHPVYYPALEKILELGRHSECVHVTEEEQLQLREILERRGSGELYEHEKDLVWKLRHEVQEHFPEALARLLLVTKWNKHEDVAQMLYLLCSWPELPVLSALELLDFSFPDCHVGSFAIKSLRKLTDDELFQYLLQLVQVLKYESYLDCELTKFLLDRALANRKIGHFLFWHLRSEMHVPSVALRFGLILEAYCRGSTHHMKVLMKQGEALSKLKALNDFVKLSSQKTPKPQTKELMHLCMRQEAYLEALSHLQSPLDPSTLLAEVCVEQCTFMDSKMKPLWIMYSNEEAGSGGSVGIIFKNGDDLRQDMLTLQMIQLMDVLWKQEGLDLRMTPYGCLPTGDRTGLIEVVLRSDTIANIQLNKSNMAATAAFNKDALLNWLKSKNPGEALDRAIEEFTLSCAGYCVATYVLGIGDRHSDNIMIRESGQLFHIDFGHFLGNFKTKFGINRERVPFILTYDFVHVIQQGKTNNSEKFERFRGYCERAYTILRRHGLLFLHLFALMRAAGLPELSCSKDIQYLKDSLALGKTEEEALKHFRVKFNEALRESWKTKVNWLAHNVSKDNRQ
Procedure, shortened: as §1

[4] = system: Akt phosphorylated at Thr308 in PC-3 cells; test: Cellular assay: phosphorylation of Akt at Thr308 in PC-3 cells (MSD ELISA); format: cell-based; settings: PC-3 cells, 60 min compound incubation, MSD ELISA, read-out: IC50 pAkt_Thr308
Procedure, shortened: (§2)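 After lysis of treated cells (60 min, 37° C, 0.3% DMSO), phospho-Akt levels were measured by MSD electrochemiluminescence ELISA. Potency was derived from concentration-response curves fitted over five concentrations.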

[5] = system: Akt phosphorylated at Ser473 in PC-3 cells; test: Cellular assay: phosphorylation of Akt at Ser473 in PC-3 cells (MSD ELISA); format: cell-based; settings: PC-3 cells, 60 min compound incubation, MSD ELISA, read-out: IC50 pAkt_S473
Procedure, shortened: as §2

T3 sequence (P42336 whole entry): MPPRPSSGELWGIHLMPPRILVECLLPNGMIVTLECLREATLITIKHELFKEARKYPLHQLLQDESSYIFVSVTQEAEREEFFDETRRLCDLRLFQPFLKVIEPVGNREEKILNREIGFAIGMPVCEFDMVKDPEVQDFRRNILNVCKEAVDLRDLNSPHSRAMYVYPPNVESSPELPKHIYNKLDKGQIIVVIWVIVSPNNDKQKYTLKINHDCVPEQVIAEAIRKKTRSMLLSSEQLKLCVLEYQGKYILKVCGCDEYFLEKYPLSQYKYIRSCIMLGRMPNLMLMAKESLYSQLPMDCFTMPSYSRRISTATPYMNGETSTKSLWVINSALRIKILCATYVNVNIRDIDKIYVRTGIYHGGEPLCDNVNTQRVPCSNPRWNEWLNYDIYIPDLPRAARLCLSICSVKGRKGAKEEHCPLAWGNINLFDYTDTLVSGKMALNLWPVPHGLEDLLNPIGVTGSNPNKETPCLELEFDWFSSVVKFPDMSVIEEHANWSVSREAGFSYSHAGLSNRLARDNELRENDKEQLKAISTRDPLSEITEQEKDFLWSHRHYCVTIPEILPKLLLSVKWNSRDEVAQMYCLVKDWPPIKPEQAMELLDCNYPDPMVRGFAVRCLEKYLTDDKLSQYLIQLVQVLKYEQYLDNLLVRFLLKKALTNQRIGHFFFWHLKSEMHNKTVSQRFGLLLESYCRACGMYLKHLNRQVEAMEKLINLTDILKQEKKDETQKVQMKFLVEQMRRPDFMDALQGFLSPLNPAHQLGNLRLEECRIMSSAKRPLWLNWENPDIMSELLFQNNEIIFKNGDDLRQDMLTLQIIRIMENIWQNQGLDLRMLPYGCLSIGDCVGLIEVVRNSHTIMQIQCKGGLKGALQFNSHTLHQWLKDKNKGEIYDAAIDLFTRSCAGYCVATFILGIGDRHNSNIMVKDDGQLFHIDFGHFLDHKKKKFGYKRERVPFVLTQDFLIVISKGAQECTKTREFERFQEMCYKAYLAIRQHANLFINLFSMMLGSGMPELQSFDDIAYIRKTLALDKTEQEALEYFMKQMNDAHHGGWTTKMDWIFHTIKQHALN
T1 sequence (P48736 whole entry): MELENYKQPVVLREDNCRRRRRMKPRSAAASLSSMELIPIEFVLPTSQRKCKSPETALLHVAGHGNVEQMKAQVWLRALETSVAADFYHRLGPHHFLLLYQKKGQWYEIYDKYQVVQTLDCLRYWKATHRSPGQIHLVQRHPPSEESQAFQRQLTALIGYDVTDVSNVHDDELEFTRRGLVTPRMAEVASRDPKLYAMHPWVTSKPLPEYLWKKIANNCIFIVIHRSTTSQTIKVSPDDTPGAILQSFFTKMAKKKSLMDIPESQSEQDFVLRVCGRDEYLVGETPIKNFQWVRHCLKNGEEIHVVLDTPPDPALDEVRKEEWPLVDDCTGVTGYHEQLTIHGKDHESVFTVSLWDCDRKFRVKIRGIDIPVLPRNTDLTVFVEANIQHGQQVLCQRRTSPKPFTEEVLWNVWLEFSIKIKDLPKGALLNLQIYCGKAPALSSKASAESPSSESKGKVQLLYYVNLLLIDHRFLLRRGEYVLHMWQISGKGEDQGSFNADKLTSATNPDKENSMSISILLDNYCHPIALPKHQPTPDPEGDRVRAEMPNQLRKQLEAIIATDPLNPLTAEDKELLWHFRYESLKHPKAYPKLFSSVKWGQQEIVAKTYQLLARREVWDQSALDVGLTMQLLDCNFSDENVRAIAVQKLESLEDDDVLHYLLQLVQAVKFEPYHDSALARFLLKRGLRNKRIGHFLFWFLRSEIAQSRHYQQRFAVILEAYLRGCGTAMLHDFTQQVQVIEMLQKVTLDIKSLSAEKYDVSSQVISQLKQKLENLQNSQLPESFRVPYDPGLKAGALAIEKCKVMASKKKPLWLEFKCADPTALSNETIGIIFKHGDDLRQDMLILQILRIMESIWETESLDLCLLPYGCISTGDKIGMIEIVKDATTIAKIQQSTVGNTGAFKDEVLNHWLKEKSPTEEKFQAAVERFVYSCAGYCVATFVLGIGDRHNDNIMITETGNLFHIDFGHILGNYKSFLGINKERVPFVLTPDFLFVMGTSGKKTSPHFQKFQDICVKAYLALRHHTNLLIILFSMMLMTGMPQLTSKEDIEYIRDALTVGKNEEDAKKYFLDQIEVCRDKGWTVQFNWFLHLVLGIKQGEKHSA
T4 sequence (P42338 whole entry): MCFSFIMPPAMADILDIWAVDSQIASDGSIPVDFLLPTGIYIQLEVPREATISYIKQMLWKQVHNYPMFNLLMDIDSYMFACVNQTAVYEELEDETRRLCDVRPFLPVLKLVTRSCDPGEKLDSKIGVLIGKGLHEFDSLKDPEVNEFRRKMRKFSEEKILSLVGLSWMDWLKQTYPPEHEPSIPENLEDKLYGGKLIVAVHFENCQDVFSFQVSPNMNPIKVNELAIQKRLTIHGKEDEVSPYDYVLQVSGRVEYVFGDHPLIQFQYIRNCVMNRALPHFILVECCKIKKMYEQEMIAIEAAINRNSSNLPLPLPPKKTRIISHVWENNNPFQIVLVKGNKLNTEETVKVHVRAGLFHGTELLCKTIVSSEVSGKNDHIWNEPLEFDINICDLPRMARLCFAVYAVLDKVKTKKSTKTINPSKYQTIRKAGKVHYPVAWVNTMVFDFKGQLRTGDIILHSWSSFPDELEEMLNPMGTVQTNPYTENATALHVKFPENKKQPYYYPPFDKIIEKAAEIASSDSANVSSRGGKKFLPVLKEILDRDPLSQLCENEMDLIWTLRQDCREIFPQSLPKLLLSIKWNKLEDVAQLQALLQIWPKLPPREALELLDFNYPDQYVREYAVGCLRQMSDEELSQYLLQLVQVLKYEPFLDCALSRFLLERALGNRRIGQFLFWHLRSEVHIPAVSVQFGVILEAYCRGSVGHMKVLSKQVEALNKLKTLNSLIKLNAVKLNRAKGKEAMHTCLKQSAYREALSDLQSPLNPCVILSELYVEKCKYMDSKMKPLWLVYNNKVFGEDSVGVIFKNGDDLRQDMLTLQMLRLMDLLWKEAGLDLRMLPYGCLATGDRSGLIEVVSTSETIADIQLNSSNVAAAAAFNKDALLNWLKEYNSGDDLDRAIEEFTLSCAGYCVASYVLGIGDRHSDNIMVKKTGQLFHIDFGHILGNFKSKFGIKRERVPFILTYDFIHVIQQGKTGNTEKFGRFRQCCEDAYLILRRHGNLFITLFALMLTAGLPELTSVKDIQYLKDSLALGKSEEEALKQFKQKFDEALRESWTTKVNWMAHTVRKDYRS

melting point [°C] | Kd (kinase enzymes [1]) [nM] | Kd (kinase enzymes [2]) [nM] | Kd (kinase enzymes [3]) [nM] | Kd (PI3Kβ) [nM] | Kd (PI3Kδ) [nM] | IC50 ([4]; Homo sapiens, PC-3, 1 h) [nM] | IC50 ([5]; Homo sapiens, PC-3, 1 h) [nM] | IC50 [4] [nM] | IC50 [5] [nM] | Compound
55 | > 30200 | > 30200 | 6610 | 13 | 2630 | 148 | > 513 | – | – | CC(Oc1cc(F)cc(F)c1)c1cc(C(=O)N2CCOCC2)cc2ncc(N3CCO[C@H](C)C3)nc12 (mixture of isomers) [Compound 56]
100 | 891 | 8130 | 79 | 0.5 | 27 | 4 | 9 | – | – | O=C(c1cc(C2CCCN2c2cc(F)cc(F)c2)c2nc(N3CCOCC3)cnc2c1)N1CC(CO)C1 (centres unmarked) [Compound 63]
80 | 525 | 25100 | 49 | 0.4 | 31 | – | – | 4 | ~5 | CN1CCN(C(=O)c2cc(C3CCCN3c3cc(F)cc(F)c3)c3nc(N4CCOCC4)cnc3c2)CC1 (single isomer, unassigned) [Compound 57]
100 | 1820 | 23400 | 832 | 0.2 | 68 | 6 | 7 | – | – | CNCCNC(=O)c1cc(C(C)Nc2cccc(F)c2)c2nc(N3CCOCC3)cnc2c1 (centres unmarked) [Compound 282]
102 | 29500 | > 30200 | 3020 | 10 | 912 | – | 288 | 138 | – | CC(Nc1ccc(F)c(F)c1)c1cc(C(=O)NCC(C)(C)O)cc2ncc(N3CCOCC3)nc12 (single isomer, unassigned) [Compound 348a]
158 | 5620 | 28800 | 2570 | 1 | 275 | 13 | 20 | – | – | CC(C)NCCNC(=O)c1cc(C(C)Nc2cccc(F)c2)c2nc(N3CCOCC3)cnc2c1 (centres unmarked) [Compound 226]
206 | 3600 | 20200 | 3370 | 1 | 190 | – | – | 22 | 36 | CC(C)NCCNC(=O)c1cc(C(C)Nc2cc(F)cc(F)c2)c2nc(N3CCOCC3)cnc2c1 (single isomer, unassigned) [Compound 211]
80 | > 30200 | > 30200 | > 30200 | 3980 | > 30200 | > 513 | > 513 | – | – | Cc1c(N2CCCC2c2cc(C(=O)N(C)C)cc3ncc(N4CCOCC4)nc23)cccc1C(F)(F)F (centres unmarked) [Compound 55]
121 | 2750 | 22900 | 339 | 0.1 | 26 | – | – | 6 | 14 | CC(Nc1ccc(F)c(F)c1)c1cc(C(=O)NCC2CCCN2)cc2ncc(N3CCOCC3)nc12 (single isomer, unassigned) [Compound 329a]
106 | 2750 | > 30200 | 23400 | 741 | 20900 | – | – | > 513 | > 513 | CC(Nc1ccc(F)c(F)c1)c1cc(C(=O)NC[C@@H](C)O)cc2ncc(N3CCOCC3)nc12 (single isomer, unassigned) [Compound 346b]
132 | 5890 | > 30200 | 2460 | 0.3 | 141 | – | – | 17 | 32 | CC(Nc1ccc(F)c(F)c1)c1cc(C(=O)N[C@H]2CCNC2)cc2ncc(N3CCOCC3)nc12 (single isomer, unassigned) [Compound 374a]
80 | 13800 | > 30200 | 6170 | 38 | 4900 | 240 | > 513 | – | – | CN(C)C(=O)c1cc(C2CCCN2c2cccc(C(F)(F)F)c2)c2nc(N3CCOCC3)cnc2c1 (centres unmarked) [Compound 52]
134 | 11000 | 17400 | 21400 | 457 | 7590 | – | – | > 513 | > 513 | CC(Oc1cccc(F)c1)c1cc(C(=O)NCCO)cc2ncc(N3CCOCC3)nc12 (single isomer, unassigned) [Compound 334b]
70 | 22900 | > 30200 | 2690 | 36 | 661 | > 513 | > 513 | – | – | CN(C)C(=O)c1cc(N2CCC2c2ccc(F)cc2)c2nc(N3CCOCC3)cnc2c1 (centres unmarked) [Compound 397]
80 | 1480 | > 30200 | 331 | 1 | 56 | 11 | 16 | – | – | CN(C)C(=O)c1cc(C2CCCN2c2ccc(F)cc2)c2nc(N3CCOCC3)cnc2c1 (centres unmarked) [Compound 42]
80 | 26300 | > 30200 | 2690 | 13 | 977 | 48 | 151 | – | – | CC(Nc1ccc(F)c(F)c1)c1cc(C(=O)N2CCN3CCC[C@H]3C2)cc2ncc(N3CCOCC3)nc12 (some centres unmarked) [Compound 287]
